Reference: patent US20150057243A1, “Compositions and Methods for the Inhibition of Methyltransferases” (Northeastern University, priority 2012, published 2015)

What was measured:
[1] = biological target: T1, human betaine-homocysteine S-methyltransferase (Homo sapiens, UniProt Q93088); settings: cited from earlier work
T1 sequence (Q93088 1-406): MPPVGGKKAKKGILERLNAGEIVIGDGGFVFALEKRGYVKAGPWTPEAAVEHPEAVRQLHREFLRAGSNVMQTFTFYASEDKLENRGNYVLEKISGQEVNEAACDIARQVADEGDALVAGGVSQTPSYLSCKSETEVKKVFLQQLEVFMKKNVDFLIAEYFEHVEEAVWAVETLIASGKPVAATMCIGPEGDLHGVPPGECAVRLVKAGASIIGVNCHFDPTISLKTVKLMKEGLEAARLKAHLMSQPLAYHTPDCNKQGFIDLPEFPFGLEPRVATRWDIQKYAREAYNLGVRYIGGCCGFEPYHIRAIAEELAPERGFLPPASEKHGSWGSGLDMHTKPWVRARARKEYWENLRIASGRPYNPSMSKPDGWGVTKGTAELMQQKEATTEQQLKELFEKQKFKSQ

[2] = biological target: T2, TPMT (Homo sapiens, UniProt P51580); settings: data referred to for comparison; cited from earlier work
T2 construct: made in house
T2 sequence (P51580 1-245): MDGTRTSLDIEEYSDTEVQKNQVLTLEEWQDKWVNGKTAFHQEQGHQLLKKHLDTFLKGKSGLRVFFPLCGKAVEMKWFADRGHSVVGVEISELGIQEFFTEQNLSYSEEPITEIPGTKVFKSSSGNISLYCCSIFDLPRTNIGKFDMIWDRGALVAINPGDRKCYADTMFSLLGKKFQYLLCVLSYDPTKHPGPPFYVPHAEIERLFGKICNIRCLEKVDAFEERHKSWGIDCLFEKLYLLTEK

[3] = biological target: T2, TPMT; assay: specificity assay with AdoVin (time-dependent UV absorbance change); format: biochemical; settings: FIG. 34
Text: In comparison, the concentration of 4-methoxybenzylthiol decreased in the presence of AdoVin, indicating a reaction with AdoVin.

[4] = test system: Leishmania promastigotes; settings: Lawrence 1993, Avila 1993; cited from earlier work
[5] = test system: trypanosomes; settings: Goldberg 1997; cited from earlier work
[6] = test system: Candida albicans and various Aspergillus species; settings: cited from earlier work
[7] = test system: mammalian cells; settings: cited from earlier work
[8] = test system: cells; settings: cited from earlier work
[9] = biological target: T3, histidine-tagged TPMT enzyme (Homo sapiens, UniProt P51580); assay: AdoVin-TNB binding assay, histidine-tagged TPMT isolated using nickel spin column; settings: XIC (FIG. 30 top panel)
T3 construct: made in house
T3 sequence (P51580 1-245): T2 sequence (P51580 1-245)
Protocol: The histidine-tagged TPMT enzyme was isolated using nickel spin column. 610.0 m/z at 8.6 min is for the TNB-AdoVin adduct (confirmed by tandem mass analysis), 411.0 m/z at 1.6 min is for AdoVin, and 162.0 m/z at 6.2 min is for vinthionine. […] The peak around 1.58 minutes with m/z 411.0 corresponds to AdoVin, while the peak around 6.2 min with m/z 162.0 corresponds to vinthionine.
Recombinant histidine-tagged human thiopurine methyltransferase (TPMT, EC 2.1.1.67) and S-adenosylhomocysteine nucleosidase (MTAN, EC 3.2.2.9) were purified as described. See Cannon, L. M. et al. Anal. Biochem. 2002, 308, 35/-363; Lee, J. E. et al. Acta Crystallogr. D. Biol. Crystallogr. 2001, 57, 150-152. The recombinant E. coli homocysteine S-methyltransferase (HMT, EC 2.1.1.10) was a gift from Steven G Clark (UCLA Department of Chemistry and Biochemistry, Los Angeles, Calif.), and purified as described. See Vinci, C. R.; Clarke, S. G. J. Biol. Chem. 2010, 285(27), 20526-20531; Vinci, C. R.; Clarke, S. G. J. Biol. Chem. 2007, 282(12), 8604-8612.

In the case of `C=CSCCC(N)C(=O)O` (racemic) [DL-S-Vinylhomocysteine], the “inhibition of human betaine-homocysteine S-methyltransferase” value [1] is listed as “not to be an inhibitor”.
For `COc1ccc(CS)cc1` [4-methoxybenzylthiol], the “reaction with AdoMet (the natural substrate for TPMT)” value [2] is given as “reacts” and the “time-dependent UV absorbance / concentration change in the presence of AdoVin” value [3] is given as “decreased”.
For `O=[N+]([O-])c1ccc(O)cc1` [4-nitrophenol], the “reaction with AdoMet (the natural substrate for TPMT)” value [2] is given as “does not react” and the “time-dependent UV absorbance / concentration change in the presence of AdoVin” value [3] is given as “No change was observed”.
For `C[S+](CC[C@H](N)C(=O)[O-])C[C@H]1O[C@@H](n2cnc3c(N)ncnc32)[C@H](O)[C@@H]1O` (stereo partly drawn) [AdoMet, S-Adenosyl-methionine], the “active transport into Leishmania promastigotes” value [4] is listed as “actively transported”, the “active transport into trypanosomes” value [5] is listed as “actively transported” and the “active transport into Candida albicans and various Aspergillus species” value [6] is listed as “actively transported”. The “active transport into mammalian cells” value [7] was “not actively transported”.
In the case of `C=CSCC[C@H](N)C(=O)O` [L-S-Vinylhomocysteine], the “active transport into cells” value [8] is given as “actively transported into cells”.
In the case of `C=CSCC[C@H](N)C(=O)O` [vinthionine, S-Demethyl-5-vinyl-L-methionine], the cell permeability [8] is given as “cell permeable” and the “presence in the enzyme complex” value [9] is given as “absence”.
